Measured values reported in US20240060146A1, “CHEMICAL SUBSTANCE EVALUATION SYSTEM USING MULTICOLOR LIGHT-EMITTING CELLS” (TOHOKU UNIVERSITY, priority 2020, published 2024).

Legend:
Format in all cases: cell-based
[1] = system: 2H4 cells; test: IL-2 Luc assay: evaluation of chemical substance in 2H4 cells; details: 1 h chemical, then PMA/ionomycin, luminescence after six hours, class from Min % suppression of nIL2LA
Procedure: (§1) 2H4 cells were established from Jurkat cells according to the method described in PTL 1. First, for the preparation of 2H4 cells, a plasmid having SLG introduced downstream of the IL-2 promoter, a plasmid having SLR introduced downstream of the G3PDH promoter, and a plasmid having SLO introduced downstream of the INF-γ promoter were prepared as internal standards. These plasmids contained a resistance gene for hygromycin B, puromycin, and neomycin downstream of SLG, SLR, and SLO, respectively. The conditions for drug selection after transfection of the host Jurkat cells were as follows: in the primary selection, the cells were cultured for 1 week in the presence of a drug. In the secondary selection culture, the cells that survived in the primary selection culture were seeded in a 96-well plate at 1 cell/well or 200 cells/well, and cultured for 2 weeks under the same drug conditions. After the secondary selection culture, the cells were subjected to clone selection from the two points of signal intensity and signal induction by drug treatment. The G3PDH promoter SLR was first introduced to establish monochromatic stable cell line Jurkat: G3PDH-SLR #14D1 cells. These cells were used as the parent cell line to introduce the INF-γ promoter SLO, thereby establishing bichromatic stable cell line Jurkat: INFγ-SLO/G3PDH-SLR #2B12 cells. Subsequently, the obtained cells were used as a parent cell line to introduce the IL-2 promoter SLG, thereby establishing trichromatic stable cell line Jurkat IL-2-SLG/INFγ-SLO/G3PDH-SLR #2H4 cells.
(§2) % suppression={(nIL2LA in 2H4 cells untreated with a chemical substance)−(nIL2LA in 2H4 cells treated with a chemical substance)}×100/(nIL2LA in 2H4 cells untreated with a chemical substance) ---(1) Inh-GAPLA=(GAPLA in 2H4 cells treated with a chemical substance)/(GAPLA in 2H4 cells untreated with a chemical substance) ---(2)
The chemical substances listed in Table 1 were evaluated using 2H4 cells. 2H4 cells were seeded in a 96-well plate at 2×10^5 cells/50 μl/well and treated with each chemical substance for 1 hour, followed by incubating the cells with 25 nM PMA and 1 µM ionomycin […]. After six hours from the treatment with PMA and ionomycin, Tripluc: Assay Reagent (manufactured by Toyobo Co., Ltd.) was added, and the amount of luminescence was measured with a Phelios microplate luminometer (manufactured by Atto Corporation). For control, 2H4 cells untreated with a chemical substance were also examined in the same manner. The amount of luminescence of SLG luciferase activity (IL2LA), SLR luciferase activity (GAPLA), and SLO luciferase activity (IFNLA) was measured, and IL-2LA and IFNLA were each normalized by GAPLA and determined to be nIL2LA and nIFNLA, respectively. Thereafter, for the concentration of each chemical substance, the value of suppression was calculated according to formula (1) above, and the chemical substances were evaluated by using their minimum value (Min suppression).

[2] = system: 2H4 cells; test: Evaluation of combination of IL-2 Luc LTT and IL-2 Luc assay; parameters: key: Positive (Pos): If the result is either LCT in the IL-2 Luc LTT or S in the IL-2 Luc assay, or both, the chemical substance is determined to be an immunosuppressive substance.; Negative (Neg): In the case other than the above, the chemical substance is determined to be a non-immunosuppressive substance; details: LCT in IL-2 Luc LTT or S in IL-2 Luc assay = Pos
Procedure: Positive (Pos): If the result is either LCT in the IL-2 Luc LTT or S in the IL-2 Luc assay, or both, the chemical substance is determined to be an immunosuppressive substance. Negative (Neg): In the case other than the above, the chemical substance is determined to be a non-immunosuppressive substance.

[3] = system: 2H4 cells; test: IL-2 Luc LTT: evaluation of chemical substance in 2H4 cells; details: 1 h chemical, then 25 nM PMA and 1 μM ionomycin 24 h, class from Min % suppression (nIL2LA) and Min Inh-GAPLA
Procedure: as §1
The chemical substances listed in Table 1 were evaluated using 2H4 cells. 2H4 cells were seeded in a 96-well plate at 1×10^4/well and treated with each chemical substance for 1 hour, followed by incubating the cells with 25 nM PMA and 1 μM ionomycin for 24 hours. After 24 hours from the treatment with PMA and ionomycin, Tripluck Assay Reagent (manufactured by Toyobo Co., Ltd.) was added, and the amount of luminescence was measured with a Phelios microplate luminometer (manufactured by Atto Corporation). For control, 2H4 cells untreated with a chemical substance were also examined in the same manner. The amount of luminescence of SLG luciferase activity (IL2LA), SLR luciferase activity (GAPLA), and SLO luciferase activity (IFNLA) was measured, and IL-2LA and IFNLA were each normalized by GAPLA and determined to be nIL2LA and nIFNLA, respectively. Thereafter, for the concentration of each chemical substance, “% suppression” and “Inh-GAPLA” were determined according to the following formulas (1) and (2), and the chemical substances were evaluated by using their minimum value (Min % suppression, Min Inh-GAPLA).
In the evaluation, for control, PMA/ionomycin-treated 2H4 cells and PMA/ionomycin-untreated 2H4 cells were also measured for nIL2LA.
as §2

Compound	IL-2 Luc Assay [1]	Evaluation of Combination [2]	IL-2 Luc LTT [3]
C=CC[C@@H]1/C=C(\C)C[C@H](C)C[C@H](OC)[C@H]2O[C@@](O)(C(=O)C(=O)N3CCCC[C@H]3C(=O)O[C@H](/C(C)=C/[C@@H]3CC[C@@H](O)[C@H](OC)C3)[C@H](C)[C@@H](O)CC1=O)[C@H](C)C[C@@H]2OC [Tacrolimus (Tac), Tacrolimus]	S (Min %; suppression ≥35: Suppression (denoted as “S”; determined to have immunosuppressive action))	Pos	NLCT
COc1cc([C@@H]2c3cc4c(cc3[C@@H](O[C@@H]3O[C@@H]5CO[C@@H](c6cccs6)O[C@H]5[C@H](O)[C@H]3O)[C@H]3COC(=O)[C@H]23)OCO4)cc(OC)c1O [Teniposide]	N (−35<Min % suppression <35: No Effect (denoted as “N”; determined to not affect immunity))	Pos	LCT (Min % suppression ≤−35 and Min Inh-GAPLA <0.7: Leukocyte toxic (denoted as “LCT”; determined to have cell growth inhibition action and/or metabolic activity inhibition action))
CN(C/C=C/C#CC(C)(C)C)Cc1cccc2ccccc12 [Terbinafine]	N (−35<Min % suppression <35: No Effect (denoted as “N”; determined to not affect immunity))	Pos	NLCT
CC(=O)CC(c1ccccc1)c1c(O)c2ccccc2oc1=O (stereo not drawn) [Warfarin]	N (−35<Min % suppression <35: No Effect (denoted as “N”; determined to not affect immunity))	Neg	NLCT
Bleomycin sulfate	N (−35<Min % suppression <35: No Effect (denoted as “N”; determined to not affect immunity))	Pos	LCT (Min % suppression ≤−35 and Min Inh-GAPLA <0.7: Leukocyte toxic (denoted as “LCT”; determined to have cell growth inhibition action and/or metabolic activity inhibition action))
